From PMC4053376, “Characterization of the Xiamenmycin Biosynthesis Gene Cluster in Streptomyces xiamenensis 318” (PLoS ONE, 2014)

How the values were obtained:
[1] = molecular target: T1, XimB (Streptomyces xiamenensis, UniProt U5PZQ3); experiment: membrane fraction, product […] by UPLC-Q-TOF-MS; type: biochemical; settings: 0.3 mM GPP, 0.5 mM 4HB, 5 mM MgSO4, 50 mM Tris-HCl pH 7.5, 30 °C
T1 construct: full-length 313 aa; N-terminal His tag, pET28a, E. coli BL21(DE3) membrane fraction; twelve predicted transmembrane helices
T1 sequence (U5PZQ3 1-313): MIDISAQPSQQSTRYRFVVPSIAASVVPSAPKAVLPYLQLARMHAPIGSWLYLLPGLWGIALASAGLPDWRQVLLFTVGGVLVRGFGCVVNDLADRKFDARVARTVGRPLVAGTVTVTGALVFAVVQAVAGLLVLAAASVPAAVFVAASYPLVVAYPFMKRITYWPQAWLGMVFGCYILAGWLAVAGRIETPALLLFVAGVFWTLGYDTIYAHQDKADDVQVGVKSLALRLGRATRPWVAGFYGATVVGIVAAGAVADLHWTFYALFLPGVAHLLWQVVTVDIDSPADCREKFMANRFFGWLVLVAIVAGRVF

[2] = molecular target: T2, XimC (Streptomyces xiamenensis, UniProt U5Q2Q4); experiment: product 4HB by GC-MS; type: biochemical; settings: 50 mM Tris-HCl pH 7.5, 30 °C, 30 min
T2 construct: full-length 196 aa; N-terminal His6 tag, pET28a, E. coli BL21(DE3), Ni-NTA purified
T2 sequence (U5Q2Q4 entry or part of it): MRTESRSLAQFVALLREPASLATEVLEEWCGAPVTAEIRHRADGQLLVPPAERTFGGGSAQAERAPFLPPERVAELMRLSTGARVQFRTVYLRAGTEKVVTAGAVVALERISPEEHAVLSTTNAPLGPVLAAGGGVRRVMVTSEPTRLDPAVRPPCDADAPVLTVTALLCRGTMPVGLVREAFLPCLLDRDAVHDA

Compound	membrane fraction, product 2 by UPLC-Q-TOF-MS [1]	product 4HB by GC-MS [2]
CC(C)=CCC/C(C)=C/COP(=O)(O)OP(=O)(O)O [geranyl diphosphate]	membrane fraction containing XimB was incubated with 4HB and GPP	
O=C(O)c1ccc(O)cc1 [4-hydroxybenzoic acid]	membrane fraction containing XimB was incubated with 4HB and GPP	
C=C(O[C@@H]1C=C(C(=O)O)C=C[C@H]1O)C(=O)O [chorismate]		incubated with chorismate, the formation of 4HB was observed and confirmed by GC-MS
